Measured values published in ChEMBL document CHEMBL1806435, “Discovery of bacterial NAD+-dependent DNA ligase inhibitors: optimization of antibacterial activity” (Bioorg Med Chem Lett, 2011).
Values after ≈ are worked out from the molar mass of the structure shown.

Key:
[1] = system: Streptococcus pneumoniae; assay: Antibacterial activity against Streptococcus pneumoniae; assay type: functional
[2] = Lipophilicity, log D of the compound in octanol buffer at pH 7.4 by shake flask method; assay type: physicochemical
[3] = Inhibition of Streptococcus pneumoniae LigA by FRET-based assay
[4] = Equilibrium solubility of the compound; assay type: physicochemical
[5] = Plasma protein binding in human assessed as fraction unbound by equilibrium dialysis method; assay type: ADME, cell-free
[6] = Inhibition of Staphylococcus aureus LigA by FRET-based assay
[7] = system: Staphylococcus aureus; assay: Antibacterial activity against Staphylococcus aureus; assay type: functional
[8] = Apparent permeability from apical to basolateral side in human Caco2 cells; assay type: ADME, cell-based; details: Caco-2
[9] = Inhibition of Escherichia coli LigA by FRET-based assay
[10] = system: Haemophilus influenzae; assay: Antibacterial activity against efflux pump-deficient Haemophilus influenzae; assay type: functional
[11] = Inhibition of […] LigA by FRET-based assay; parameters: species or system Haemophilus influenzae
[12] = target: DNA ligase 1 (Homo sapiens, UniProt P18858); assay: Inhibition of human DNA Ligase I by FRET-based assay
Sequence of DNA ligase 1 (P18858 whole entry): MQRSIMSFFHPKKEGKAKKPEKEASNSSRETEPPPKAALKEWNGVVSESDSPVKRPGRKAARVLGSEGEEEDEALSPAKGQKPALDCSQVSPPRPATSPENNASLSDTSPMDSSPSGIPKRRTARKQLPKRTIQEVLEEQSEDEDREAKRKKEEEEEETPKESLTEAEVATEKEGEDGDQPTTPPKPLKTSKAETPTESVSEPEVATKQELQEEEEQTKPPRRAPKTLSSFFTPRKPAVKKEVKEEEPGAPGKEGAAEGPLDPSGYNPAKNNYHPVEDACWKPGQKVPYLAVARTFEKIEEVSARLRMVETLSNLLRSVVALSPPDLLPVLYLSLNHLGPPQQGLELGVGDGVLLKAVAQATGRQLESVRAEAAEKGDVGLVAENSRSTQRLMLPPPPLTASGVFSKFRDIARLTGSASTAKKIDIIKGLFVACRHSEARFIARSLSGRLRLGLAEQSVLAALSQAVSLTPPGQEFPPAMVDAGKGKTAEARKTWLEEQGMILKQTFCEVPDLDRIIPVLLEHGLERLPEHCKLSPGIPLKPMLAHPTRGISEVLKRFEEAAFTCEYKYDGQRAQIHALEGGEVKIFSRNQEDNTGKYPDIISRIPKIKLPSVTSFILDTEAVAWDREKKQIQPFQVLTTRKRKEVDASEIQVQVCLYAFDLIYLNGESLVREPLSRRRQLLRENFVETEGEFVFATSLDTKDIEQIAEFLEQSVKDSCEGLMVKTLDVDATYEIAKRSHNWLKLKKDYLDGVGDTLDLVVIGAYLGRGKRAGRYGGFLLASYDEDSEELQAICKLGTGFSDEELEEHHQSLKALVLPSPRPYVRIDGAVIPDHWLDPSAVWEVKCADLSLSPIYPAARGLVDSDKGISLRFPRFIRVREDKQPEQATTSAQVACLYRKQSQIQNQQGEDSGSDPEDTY

Structure (SMILES) | MIC [1] [µg/mL] | logD [2] | IC50 [3] [nM] | solubility thermodynamic [4] [µM] | fraction unbound [5] | IC50 [6] [nM] | MIC [7] [µg/mL] | Papp A→B [8] [×10⁻⁶ cm/s] | IC50 [9] [nM] | MIC [10] [µg/mL] | IC50 [11] [nM] | IC50 [12] [nM]
C[C@H]1O[C@@H](n2cnc3c(N)nc(OCC4CC45CC5)nc32)[C@H](O)[C@@H]1O (some centres undefined) | 1 (≈ 2.88 µM) | 1.78 | 40 | 801 (≈ 278 µg/mL) | 0.25 | 60 | 2 (≈ 5.76 µM) | – | – | – | – | –
Nc1nc(OC2CCCC2)nc2c1ncn2[C@@H]1O[C@H](CO)[C@@H](O)[C@H]1O | 16 (≈ 45.5 µM) | – | 150 | – | 0.66 | 430 | 64 (≈ 182 µM) | – | – | – | – | –
C[C@H]1O[C@@H](n2cnc3c(N)nc(OC4CCCC4)nc32)[C@H](O)[C@H]1Cl | 4 (≈ 11.3 µM) | 3.18 | 40 | 304 (≈ 108 µg/mL) | – | 40 | 8 (≈ 22.6 µM) | – | – | – | – | –
CCCCSc1nc(N)c2ncn([C@@H]3O[C@H](C)[C@@H](O)[C@H]3O)c2n1 | 8 (≈ 23.6 µM) | – | 130 | – | – | 170 | 64 (≈ 189 µM) | – | – | – | – | –
Nc1nc(OCC2CCC2)nc2c1ncn2[C@@H]1O[C@H](CF)[C@@H](O)[C@H]1O | 2 (≈ 5.66 µM) | – | 50 | – | – | 60 | 8 (≈ 22.6 µM) | – | – | – | – | –
Nc1nc(OC2CCCC2)nc2c1ncn2[C@@H]1O[C@H](CO)[C@H](Cl)[C@H]1O | 8 (≈ 21.6 µM) | – | 80 | – | – | 110 | 8 (≈ 21.6 µM) | – | – | – | – | –
C[C@H]1O[C@@H](n2cnc3c(N)nc(Oc4ccccc4)nc32)[C@H](O)[C@@H]1O | 64 (≈ 186 µM) | – | 2670 | – | – | 140 | 64 (≈ 186 µM) | – | – | – | – | –
C[C@H]1O[C@@H](n2cnc3c(N)nc(OC4CCCC4)nc32)[C@H](O)[C@@H]1OCc1ccc(Cl)c(Cl)c1 | 0.5 (≈ 1.01 µM) | > 3.5 | < 10 | < 1 | – | 130 | 8 (≈ 16.2 µM) | – | – | – | – | –
C[C@H]1O[C@@H](n2cnc3c(N)nc(OC4CCCC4)nc32)[C@H](O)[C@@H]1O | 2 (≈ 5.96 µM) | – | 80 | – | – | 120 | 8 (≈ 23.9 µM) | 7.26 | – | – | – | –
Nc1nc(OC2CCCC2)nc2c1ncn2[C@@H]1O[C@H](CF)[C@@H](O)[C@H]1O | 4 (≈ 11.3 µM) | – | 120 | – | – | 120 | 16 (≈ 45.3 µM) | – | – | – | – | –
C[C@H]1O[C@@H](n2cnc3c(N)nc(OCC4CC45CC5)nc32)[C@H](O)[C@H]1Cl (some centres undefined) | 0.5 (≈ 1.37 µM) | 3.7 | 20 | 21 (≈ 7.68 µg/mL) | 0.04 | 30 | 1 (≈ 2.73 µM) | – | – | – | – | –
Nc1nc(OCc2nccs2)nc2c1ncn2[C@@H]1O[C@H](CF)[C@@H](O)[C@H]1O | 64 (≈ 167 µM) | – | 870 | – | – | 910 | > 64 | – | – | – | – | –
CCCCSc1nc(N)c2ncn([C@@H]3O[C@H](CO)[C@@H](O)[C@H]3O)c2n1 | 32 (≈ 90 µM) | – | 140 | – | 0.003 | 80 | > 64 | – | 1270 | 32 (≈ 90 µM) | 510 | > 200000
C[C@H]1O[C@@H](n2cnc3c(N)nc(O[C@H]4CC[C@H](C)CC4)nc32)[C@H](O)[C@@H]1O | 1 (≈ 2.75 µM) | 2.35 | 50 | 934 (≈ 339 µg/mL) | 0.27 | 160 | 2 (≈ 5.5 µM) | – | – | – | – | –
Nc1nc(SC2CCCC2)nc2c1ncn2[C@@H]1O[C@H](CO)[C@@H](O)[C@H]1O | 16 (≈ 43.5 µM) | – | 440 | – | – | 380 | 32 (≈ 87.1 µM) | – | – | – | – | –
C[C@H]1O[C@@H](n2cnc3c(N)nc(OC4CC5CC5C4)nc32)[C@H](O)[C@@H]1O (some centres undefined) | 2 (≈ 5.76 µM) | – | 60 | – | – | 130 | 4 (≈ 11.5 µM) | – | – | – | – | –
Nc1nc(OCC2(CO)CC2)nc2c1ncn2[C@@H]1O[C@H](CF)[C@@H](O)[C@H]1O | > 64 | – | 400 | – | – | 370 | > 64 | – | – | – | – | –
[N-]=[N+]=N[C@@H]1[C@@H](O)[C@H](n2cnc3c(N)nc(OC4CCCC4)nc32)O[C@@H]1CF | 0.5 (≈ 1.32 µM) | 2.65 | 70 | – | 0.19 | 90 | 8 (≈ 21.1 µM) | – | – | – | – | –
